Assay results taken from ChEMBL document CHEMBL4038308, “Lipophosphonoxins II: Design, Synthesis, and Properties of Novel Broad Spectrum Antibacterial Agents” (J Med Chem, 2017).
Converted amounts (≈) assume the structure as drawn. The source made the active and inactive calls. The calls are words filed in the database; no cut-off is given here.

Columns and labels:
J774.A1 = assay: Cytotoxicity against mouse J774A.1 cells assessed as damage to cell membrane by measuring propidium iodide intake at 5 uM by spectrofluorometric analysis; type: cell-based; details: j774.a1, 5 µM
Pseudomonas aeruginosa [1] = assay: microbe, parasite or virus in culture; details: CCM 3955, 24 h
Lipid bilayer [2] = assay: Binding affinity to DOPG large unilamellar vesicle assessed as increase in fluorescence intensity at 5 mg/L after 10 mins by fluorescence assay relative to control
Lipid bilayer [3] = assay: Binding affinity to DOPG large unilamellar vesicle assessed as Stern-Volmer quenching constant after 10 mins in presence of potassium iodide by fluorescence assay (reference value: 47.22 +/- 1.58 no_unit)
Lipid bilayer [4] = assay: Binding affinity to DOPG large unilamellar vesicle assessed as blue shift in emission maximum at 5 mg/L after 10 mins by fluorescence assay relative to control
Escherichia coli [5] = assay: Antibacterial activity against Escherichia coli CCM 3954 after 24 hrs by microdilution method; type: functional; details: CCM 3954, 24 h
Pseudomonas aeruginosa [6] = assay: Antibacterial activity against Pseudomonas aeruginosa CCM 3955 after 24 hrs by microdilution method; type: functional; details: CCM 3955, 24 h
Enterococcus faecalis = assay: Antibacterial activity against Enterococcus faecalis CCM 4224 after 24 hrs by microdilution method; type: functional; details: CCM 4224, 24 h
Staphylococcus aureus [7] = assay: Antibacterial activity against Staphylococcus aureus CCM 4223 after 24 hrs by microdilution method; type: functional; details: CCM 4223, 24 h
Bacillus subtilis [8] = assay: Antibacterial activity against Bacillus subtilis after 24 hrs by microdilution method; type: functional
Streptococcus agalactiae = assay: Antibacterial activity against Streptococcus agalactiae after 24 hrs by microdilution method; type: functional
Escherichia coli [9] = assay: Antibacterial activity against Escherichia coli 16702 after 24 hrs by microdilution method; type: functional; details: Escherichia coli, 16702, 24 h
Pseudomonas aeruginosa [10] = assay: Antibacterial activity against Pseudomonas aeruginosa 16575 after 24 hrs by microdilution method; type: functional; details: Pseudomonas aeruginosa, 16575, 24 h
Staphylococcus aureus [11] = assay: Antibacterial activity against methicillin-resistant Staphylococcus aureus 4591 clinical isolates after 24 hrs by microdilution method; type: functional; details: Staphylococcus aureus, 4591, 24 h
[12] = tested on: Staphylococcus haemolyticus; assay: Antibacterial activity against fluoroquinolne-resistant Staphylococcus haemolyticus 16568 after 24 hrs by microdilution method; type: functional; details: Staphylococcus haemolyticus, 16568, 24 h
[13] = tested on: Staphylococcus epidermidis; assay: Antibacterial activity against Staphylococcus epidermidis 8700/B after 24 hrs by microdilution method; type: functional
Enterococcus faecium = assay: Antibacterial activity against vancomycin-resistant Enterococcus faecium 419/ana clinical isolates after 24 hrs by microdilution method; type: functional
Salmonella enteritidis = assay: Antibacterial activity against Salmonella enteritidis S2-25 after 24 hrs by microdilution method; type: functional, Salmonella enterica subsp. enterica serovar Enteritidis; details: Salmonella enterica, S2-25, 24 h
Acinetobacter baumannii = assay: Antibacterial activity against Acinetobacter baumannii A3-08 after 24 hrs by microdilution method; type: functional; details: A3-08, 24 h
[14] = tested on: Stenotrophomonas maltophilia; assay: Antibacterial activity against Stenotrophomonas maltophilia S2-23 after 24 hrs by microdilution method; type: functional; details: S2-23, 24 h
Burkholderia multivorans = assay: Antibacterial activity against Burkholderia multivorans after 24 hrs by microdilution method; type: functional
Bacillus subtilis [15] = assay: Antibacterial activity against Bacillus subtilis assessed as inhibition of DNA synthesis at 2 mg/L after 50 mins by [3H]thymidine incorporation assay; type: functional
Bacillus subtilis [16] = assay: Antibacterial activity against Bacillus subtilis assessed as inhibition of RNA synthesis at 2 mg/L after 50 mins by [3H]-uridine incorporation assay; type: functional
Bacillus subtilis [17] = assay: Antibacterial activity against Bacillus subtilis assessed as inhibition of peptidoglycan synthesis at 2 mg/L after 50 mins by [3H]-N-acetylglucosamine incorporation assay; type: functional
Bacillus subtilis [18] = assay: Antibacterial activity against Bacillus subtilis assessed as inhibition of plasma membrane lipids synthesis at 2 mg/L after 50 mins by [3H]-sodium acetate incorporation assay; type: functional
Bacillus subtilis [19] = assay: Antibacterial activity against Bacillus subtilis assessed as inhibition of protein synthesis at 2 mg/L after 50 mins by [35S]-methionine incorporation assay; type: functional
Lipid bilayer [20] = assay: Binding affinity to DOPG large unilamellar vesicle assessed as carboxyfluorescein leakage at 10 mg/L after 20 secs by fluorescence-based assay relative to control
Lipid bilayer [21] = assay: Binding affinity to DOPG large unilamellar vesicle assessed as carboxyfluorescein leakage at 10 ug/ml after 20 secs by fluorescence-based assay relative to control
Lipid bilayer [22] = assay: Binding affinity to DOPC large unilamellar vesicle assessed as carboxyfluorescein leakage at 10 to 20 ug/ml after 20 secs by fluorescence-based assay relative to control
BJ = assay: Cytotoxicity against human BJ cells assessed as reduction in cell viability after 48 hrs by ATPlite reagent based assay
TERT-RPE1 [23] = assay: Cytotoxicity against human RPE1 cells assessed as reduction in cell viability after 48 hrs by ATPlite reagent based assay; details: tert-rpe1, 48 h
HepG2 [24] = assay: Cytotoxicity against human HepG2 cells assessed as reduction in cell viability after 48 hrs by ATPlite reagent based assay; details: hepg2, 48 h
TERT-RPE1 [25] = assay: Induction of apoptosis in human RPE1 cells assessed as caspase 3/7 activation up to 80 mg/L after 4 hrs by caspase-Glo 3/7 luminescent assay; type: cell-based; details: tert-rpe1, 4 h
HepG2 [26] = assay: Induction of apoptosis in human HepG2 cells assessed as caspase 3/7 activation up to 80 mg/L after 4 hrs by caspase-Glo 3/7 luminescent assay; type: cell-based; details: hepg2, 4 h
TERT-RPE1 [27] = assay: Cytotoxicity against human RPE1 cells assessed as disruption of cell membrane integrity after 4 hrs by CytoTox-ONE-based assay; details: tert-rpe1, 4 h
HepG2 [28] = assay: Cytotoxicity against human HepG2 cells assessed as disruption of cell membrane integrity after 4 hrs by CytoTox-ONE-based assay; details: hepg2, 4 h
[29] = Apparent permeability across apical to basolateral side in human Caco2 cells at 200 uM after 3 hrs by LC-MS analysis; type: ADME, cell-based; details: caco-2, 3 h
[30] = Chemical stability of compound at 50 to 500 mg/L at pH 0.18 after 24 hrs at room temperature by LC-MS analysis; type: physicochemical; details: buffer, pH 0.18, 24 h
[31] = Chemical stability of compound at 50 to 500 mg/L at pH 5 after 24 hrs at room temperature by LC-MS analysis; type: physicochemical; details: buffer, pH 5, 24 h
[32] = Chemical stability of compound at 50 to 500 mg/L at pH 8.8 after 24 hrs at room temperature by LC-MS analysis; type: physicochemical; details: buffer, pH 8.8, 24 h
TERT-RPE1 [33] = assay: Cytotoxicity against human RPE1 cells assessed as disruption of cell membrane integrity at >80 mg/L after 4 hrs by CytoTox-ONE-based assay; details: tert-rpe1, 4 h
[34] = Chemical stability of compound at 50 to 500 mg/L at pH 0.18 after 24 hrs at 37 degC by LC-MS analysis; type: physicochemical; details: buffer, pH 0.18, 24 h
[35] = Chemical stability of compound at 50 to 500 mg/L at pH 5 after 24 hrs at 37 degC by LC-MS analysis; type: physicochemical; details: buffer, pH 5, 24 h
[36] = Chemical stability of compound at 50 to 500 mg/L at pH 8.8 after 24 hrs at 37 degC by LC-MS analysis; type: physicochemical; details: buffer, pH 8.8, 24 h

CC[C@H](C)[C@H](NC(=O)CN)C(=O)NCC(=O)N[C@@H](C)C(=O)N[C@H](C(=O)N[C@@H](CC(C)C)C(=O)N[C@@H](CCCCN)C(=O)N[C@H](C(=O)N[C@@H](CC(C)C)C(=O)N[C@H](C(=O)N[C@H](C(=O)NCC(=O)N[C@@H](CC(C)C)C(=O)N1CCC[C@H]1C(=O)N[C@@H](C)C(=O)N[C@@H](CC(C)C)C(=O)N[C@H](C(=O)N[C@@H](CO)C(=O)N[C@@H](Cc1c[nH]c2ccccc12)C(=O)N[C@H](C(=O)N[C@@H](CCCCN)C(=O)N[C@@H](CCCNC(=N)N)C(=O)N[C@@H](CCCCN)C(=O)N[C@@H](CCCNC(=N)N)C(=O)N[C@@H](CCC(N)=O)C(=O)N[C@@H](CCC(N)=O)C(N)=O)[C@@H](C)CC)[C@@H](C)CC)[C@@H](C)O)[C@@H](C)O)C(C)C)C(C)C [MELITTIN]
Activity (J774.A1): Toxic

O=C(O)c1cn(C2CC2)c2cc(N3CCNCC3)c(F)cc2c1=O [CIPROFLOXACIN]
MIC (Pseudomonas aeruginosa [1]): 4 µg/mL (≈ 12.1 µM)

CCCCCCCCCCCCCCOP(=O)(CCN(CCCN)CCCN)OC[C@H]1O[C@@H](n2cc(-c3ccco3)c(=O)[nH]c2=O)[C@H](O)[C@@H]1O (some centres undefined)
fold change (FC) (Lipid bilayer [2]): 3.5 | KSV (Lipid bilayer [3]): 0.97 | Activity (Lipid bilayer [4]): 25 nm

CCCCCCCCCCCCCCCOP(=O)(CCN(CCCN)CCCN)OC[C@H]1O[C@@H](n2ccc(=O)[nH]c2=O)[C@H](O)[C@@H]1O (some centres undefined)
MIC (Escherichia coli [5]): 6.25 µg/mL (≈ 9.25 µM) | MIC (Pseudomonas aeruginosa [6]): 3.13 µg/mL (≈ 4.63 µM) | MIC (Enterococcus faecalis): 50 µg/mL (≈ 74 µM) | MIC (Staphylococcus aureus [7]): 6.25 µg/mL (≈ 9.25 µM) | MIC (Bacillus subtilis [8]): 3.13 µg/mL (≈ 4.63 µM) | MIC (Streptococcus agalactiae): 1.56 µg/mL (≈ 2.31 µM) | MIC (Escherichia coli [9]): 25 µg/mL (≈ 37 µM) | MIC (Pseudomonas aeruginosa [10]): 6.25 µg/mL (≈ 9.25 µM) | MIC (Staphylococcus aureus [11]): 1.56 µg/mL (≈ 2.31 µM) | MIC [12]: 3.13 µg/mL (≈ 4.63 µM) | MIC [13]: 3.13 µg/mL (≈ 4.63 µM) | MIC (Enterococcus faecium): 6.25 µg/mL (≈ 9.25 µM) | MIC (Salmonella enteritidis): 6.25 µg/mL (≈ 9.25 µM) | MIC (Acinetobacter baumannii): 3.13 µg/mL (≈ 4.63 µM) | MIC [14]: 3.13 µg/mL (≈ 4.63 µM) | MIC (Burkholderia multivorans): 50 µg/mL (≈ 74 µM) | inhibition (Bacillus subtilis [15]): inactive | inhibition (Bacillus subtilis [16]): inactive | inhibition (Bacillus subtilis [17]): inactive | inhibition (Bacillus subtilis [18]): inactive | inhibition (Bacillus subtilis [19]): inactive | Activity (Lipid bilayer [20]): Active | fold change (FC) (Lipid bilayer [21]): 25 | Activity (Lipid bilayer [22]): 20 to 35% | Activity (BJ): 29.1 mg/L | Activity (TERT-RPE1 [23]): 34.8 mg/L | Activity (HepG2 [24]): 33.2 mg/L | Activity (TERT-RPE1 [25]): Non-Toxic | Activity (HepG2 [26]): Non-Toxic | Activity (TERT-RPE1 [27]): 73.8 mg/L | Activity (HepG2 [28]): Non-Toxic | permeability [29]: Impermeable | Stability [30]: Stable | Stability [31]: Stable | Stability [32]: Stable | Activity (TERT-RPE1 [33]): Non-Toxic | Stability [34]: Stable | Stability [35]: Stable | Stability [36]: Stable
